The record followed here is patent publication US20240122934A1, “COMPOSITIONS AND METHODS OF TREATMENT FOR INHIBITING CAPILLARY TUBE REGRESSION” (University of South Florida, priority 2019, published 2024).

Experiment [1] concerns EC tube networks. The experiment is described as follows: 3D collagen EC tube regression assay. The format is cell-based, human. To be noted: for EC tube regression (pro-regressive activity): factor added to established 48 hr EC tube networks, 24 hr. On the procedure:
(A) EC cultures with tube networks were established for 48 hr followed by the addition of indicated cytokines or thrombin (Thr) for 24 hr. IL-1β and IL-la were added at 1 ng/ml, TNFα at 3.16 ng/ml and thrombin at 1 μg/ml. Bars equal 100 or 200 μm. (B,C,D) EC tube networks were treated with the indicated cytokines and varying concentrations in dose-response analyses and in the presence or absence of thrombin added at 1 μg/ml. After 24 hr, cultures were fixed, stained and quantitated for EC lumen area per field. These curves are from a representative experiment using triplicate wells for each condition. The values (±SD) are derived from analyzed fields (n=15) where total lumen and tube area was measured. Asterisks indicate significance at p<0.05 compared to control and squares indicate significance at p<0.05 compared to the cytokine treatments alone.
ECs (passages 3-6) and pericytes (passages 3-12) were cultured as previously described^49,50. THP-1 cells were cultured in RPMI-1640-20% FCS. THP-1-T macrophages were differentiated for 72 hr. with 50 ng/ml of phorbol ester in RPMI-20% FCS, and then treated for 48 hr. in RPMI-2% FCS prior to adding TLR ligands. THP-1-VT macrophages were induced to differentiate for 72 hr. with 10^-7 M vitamin D3 (Calcitriol) in RPMI-20% FCS, followed by 48 hr. with phorbol ester in RPMI-2% FCS prior to adding TLR ligands.
(§1) ECs or ECs with pericytes were suspended in 3D collagen matrices and incubated at 37° C. in serum-free defined media as described^9,50,51. Recombinant factors or THP-1 conditioned media were added at the indicated doses to existing 48 or 72 hr. cultures with EC only or EC-pericyte tube networks, respectively. After 24 or 48 hr. for EC only or EC-pericyte tubes, respectively, cultures were fixed in 3% glutaraldehyde or 3% paraformaldehyde. EC tube areas were traced and quantitated as described. In some cases, neutralizing antibodies were added (10 μg/ml). For signaling experiments, lysates were prepared from control vs. regressing 3D cultures at different time points.

In experiment [2] the test system is EC-pericyte tube networks. The experiment is described as follows: EC-pericyte co-culture regression assay. The format is cell-based, human. The following applies: added to 72 hr co-cultures. On the procedure:
(A) EC-pericyte (GFP-labeled) co-cultures were established and allowed to form for 72 hr and at this time, the combination of IL-1β (10 ng/ml), TNFα (10 ng/ml) and thrombin (11 μg/ml) were added in combination compared to control and real-time movies were performed. Light and fluorescent image overlays over time are shown in representative fields. Arrowheads indicate clusters of pericytes that accumulate together during regression responses in response to these three factors in combination. After 48 hr, fixed cultures were stained for CD31 to detect ECs and fluorescence image overlays were performed. (B) The same set up was established as in A, except that each individual factor and combination of factors were added. After 48 hr, the cultures were fixed and stained for CD31. Confocal images were obtained, and fluorescence overlay images are shown.
(A) EC-pericyte co-cultures were established for 72 hr, and then were left untreated or with IL-1β (10 ng/ml), TNFα (10 ng/ml), and thrombin (11 μg/ml) in combination. After 48 hr, cultures were fixed and stained with CD31, confocal microscopy and 3D reconstruction of the images allowed for an upright and side view. (B) EC-pericyte tube networks were treated with the indicated single and combined factors and after fixation, EC tube area was quantitated. […] The values (±SD) were obtained from analyzed fields (n=15) where total lumen and tube area was measured. Asterisks indicate increased significance at p<0.05 compared to control, the squares indicate decreased significance at p<0.05 relative to the single factor conditions and the triangle indicates significance at p<0.05 relative to the double factor conditions. (C) EC-pericyte tube networks were treated with indicated combinations of factors. After 48 hr, total GFP fluorescence per well was quantitated as a measure of pericyte number since they are GFP-labeled. […] Asterisks indicate significance at p<0.05 compared to control.
as §1

Experiment [3] deals with Lymphatic EC tube networks. The experiment is described as follows: lymphatic EC tube network regression. The format is cell-based. To be noted: cytokines 10 ng/ml, thrombin 1 μg/ml, 24 hr. On the procedure:
Lymphatic EC tube networks were established for 48 hr and at that time, the indicated pro-inflammatory mediators were added. IL-10 and TNFα were added at 10 ng/ml, while thrombin was added at 1 μg/ml. (A) After 24 hr, cultures were fixed, stained with toluidine blue and photographed. (B) The cultures in (A) were quantitated for EC tube area. Asterisks indicate significance at p<0.01 compared to control.

Another experiment has as its system THP-1 macrophages. As to the kind of experiment: TLR ligand activation of cells; conditioned medium tested on EC tube networks. The format is cell-based, human. The procedure:
(§2) (A,B) The TLR ligand Pam3CSK4 was added at 100 ng/ml to THP-1 macrophages that were differentiated in two separate ways (THP-1-VT vs. THP-1-T) or to ECs, fibroblasts (Fib), or pericytes (Peri). Conditioned medium was collected after 4 hr and was added at a 1:5 dilution to established EC tube networks vs. control Pam3CSK4 or control RPMI1640 media. Two independent conditioned media batches were obtained for both the THP-1-VT (i.e. VT1, VT2) and THP-1-T (i.e. T1, T2) macrophage cells. IL-la and IL-1β were added separately at 1 ng/ml. After 24 hr, cultures were fixed, stained, photographed (A) and quantitated for EC tube area (B). Bar equals 200 μm. […] The values (±SD) were obtained from analyzed fields (n=15) where total lumen and tube area was measured. Asterisks indicate significance at p<0.05 compared to control. (C) LPS was added at the indicated concentrations (ng/ml) in the presence or absence of recombinant LPS binding protein (LBP) at 1 μg/ml to EC tube networks. EC lumen areas were measured after 24 hr following these additions. (D) THP-T macrophages were treated with control or 100 ng/ml of Pam3CSK4 (Pam) or LPS. After 4 hr, total RNA was obtained, and RT-PCR analysis was performed evaluating the mRNA expression of indicated genes. […] From the real-time videos, EC lumen areas were measured over time (n=6). […]

The next experiment concerns THP-T macrophages. The experiment is described as follows: RT-PCR of cytokine mRNA in TLR ligand-treated macrophages. The following applies: 100 ng/ml, 4 hr. The format is cell-based, human. On the procedure:
as §2

The test system of experiment [4] is EC tube networks. As to the kind of experiment: Western blots of lysates from regressing 3D EC cultures (regression signaling signature). The following applies: 24-hr. time course, compared to control EC tubes. The format is cell-based, human. On the procedure: (A,B) ECs tube networks were treated with the indicated factors vs. control and at different time points, lysates were prepared from the 3D cultures. Western blots were performed using the different indicated antibodies. (C) Schematic illustrating findings that define a capillary regression signaling signature.
THP-T macrophages were treated with Pam3CSK4 (Pam) or LPS and conditioned medium was added at a 1:20 or 1:50 dilution, respectively, to EC tube networks. Control and IL10-treated cultures were compared with the conditioned medium treatments within the same experiment. At the indicated time points, lysates were obtained, and Western blots were performed with the indicated antibodies.
as §1

The next experiment concerns EC sprouts and tubes. The experiment is described as follows: angiogenic sprouting assay (ECs invading from monolayer surface). The format is cell-based, human. The following applies: angiogenic sprouting system. On the procedure:
(A) ECs were seeded onto a monolayer surface and then allowed to invade into the gels to form tubes over a 48 hr period. At this time, cultures were then treated with IL-1β or TNFα and in the absence or presence of FIST. Cultures were fixed after 24 hr, stained and photographed to visualize the monolayer surface and the underlying sprouts and tubes. (B) Cultures were established just like in A and then the Pak2 inhibitor, Frax486 (2.5 μM) or the microtubule depolymerizing agent, vinblastine (100 nM), were added to media in the presence or absence of FIST. Cultures were fixed after 24 hr, stained and photographed. Bar equals 200 μm.
Studies to define the factors and signals that promote endothelial cell (EC) lumen and tube formation, EC sprouting and EC-pericyte tube co-assembly have been performed under serum-free defined conditions so that the functional role of individual molecules that regulate these processes can be assessed. Disclosed herein, the factors that control capillary regression are defined. Capillary regression is a process that has been largely neglected despite the likelihood that it may present a fundamental pathogenic feature of major human diseases where capillary disassembly and regression are known to occur (i.e. hypertension, diabetes, ischemic disease in many tissues, neurodegenerative diseases, and malignant cancer). […] EC tube networks were allowed to form for 48 hr. (vasculogenesis type of assay) and then added these agents in dose-response experiments, showing that they potently induce EC tube regression (at low ng levels) (FIG. 1). Real-time movies were performed to visualize these pro-regressive activities. This experimental approach has utilized assays that mimic vasculogenesis or angiogenic sprouting and these factors induce regression equally well in both assay systems. […] These studies have been performed primarily in 3D collagen matrices, but the same result is also observed in 3D fibrin matrices.

For a further experiment, the system named is hyaloid vessels. The experiment is described as follows: hyaloid vascular regression in mice. The format is in vivo. The following applies: intravitreal injection, vessel number quantitated at P8. On the procedure:
(A) Intravitreal injection of blocking antibodies directed to both IL-10 and TNFα vs control IgG was performed at postnatal day (P) 6, and hyaloid vessel number was quantitated at P8. (B) Intravitreal injection of IL-10 was performed at P5 vs vehicle control, and hyaloid vessel number was quantitated at P8. (C and D) Hyaloid vessels at P2 and P8 were immunostained for phospho-MLC2 (p-MLC; red) and CD31-positive endothelial cells (ECs; green), and double-positive cells were imaged and quantitated over time. Scale bar=100 μm. E and F, Analysis of ICAM-1 expression at the mRNA (E) and protein level (F) during different stages of hyaloid vessel regression. CD indicates cluster of differentiation; DAPI, 4′6-diamidino-2-phenylindole; ICAM, intercellular adhesion molecule; and MLC, myosin light chain.
In some embodiments, physiologic capillary regression can be modeled in a mouse by examining the postnatal regression of the eye hyaloid vasculature. In some embodiments, this vascular regressive response can depend on the presence of adjacent macrophages which decorate this developmental vascular bed. […] In some embodiments, EC capillary regression during hyaloid regression can include increased expression of ICAM-1 (at the mRNA and protein level) and increased presence of phospho-MLC2 in regressing hyaloid ECs.

“Also recorded” adds a separate entry of the source.

Regarding thrombin, in the experiment with EC tube networks [1], the “EC tube regression (pro-regressive activity)” value was “directly cause capillary tube collapse and regression; also recorded: less effective”. In experiment [2], the “EC tube regression in EC-pericyte co-cultures” value is reported as “marked tube regression in response to each factor individually and, also in combination” and the pericyte numbers entry is on record as “an increase in pericyte numbers”. Also, the “lymphatic tube network regression” value in experiment [3] is on record as “regress”.
Turning to Pam3CSK4, the “induction of pro-regressive activities in conditioned media of other cell types” value in the experiment with THP-1 macrophages (ECs, pericytes and fibroblasts) is on record as “failed to induce pro-regressive activities in their conditioned media”. Besides, the “induction of pro-regressive activities in macrophage conditioned medium” value in the experiment on THP-1 macrophages (TLR ligand 100 ng/ml added to macrophages, medium collected after 4 hr) is “highly potent pro-regressive activities in the macrophage conditioned medium”. Also, the “EC tube regression (pro-regressive activity)” value with EC tube networks [1] is “Neither Pam3CSK4 or LPS by themselves (with and without the presence of LPS-binding protein, LBP) had any ability to directly cause EC tube regression”. The “mRNA expression of inflammatory cytokines” value in the experiment with THP-T macrophages is “marked upregulation of TNFα, IL-1β, IL-la, IL-6 and IL-10 (i.e. an anti-inflammatory cytokine) as well as tissue factor (i.e. F3)”.
Turning to TNFα, in the experiment on EC tube networks [1] (40 and 10 ng/ml, 48 hr EC tube networks), the “EC tube regression in screen of growth factors and cytokines” value is “more potent pro-regressive factors than the other factors described herein”. Moreover, in the experiment on EC tube networks [1], the “EC tube regression (pro-regressive activity)” value is “directly cause capillary tube collapse and regression”. Further, in the experiment with EC tube networks [4], the “ICAM-1 and VCAM-1 levels” value is “Strong upregulation of ICAM-1 and VCAM-1”; the “phospho-Pak2, phospho-cofilin, acetylated tubulin, procaspase3 levels” value was “decreased levels of phospho-Pak2, phospho-cofilin, acetylated tubulin and procaspase3”; the “phospho-p38, phospho-JNK, phospho-MLC2 levels” value is “increased levels of phospho-p38, phospho-JNK, and phospho-MLC2”. In experiment [2], the “EC tube regression in EC-pericyte co-cultures” value is “marked tube regression in response to each factor individually and, also in combination” and the pericyte numbers result is “an increase in pericyte numbers”. The “lymphatic tube network regression” value in experiment [3] is “regress”. Moreover, the “degeneration of sprouts and EC monolayer” value in the experiment on EC sprouts and tubes is reported as “induce degeneration of the invading sprouts, but also the EC monolayer surface where the sprouts originated”.

B1: IL-10: anti-inflammatory cytokine (protein, UniProt P22301 19-178, looked up)
Interleukin-10: SPGQGTQSENSCTHFPGNLPNMLRDLRDAFSRVKTFFQMKDQLDNLLLKESLLEDFKGYLGCQALSEMIQFYLEEVMPQAENQDPDIKAHVNSLGENLKTLRLRLRRCHRFLPCENKSKAVEQVKNAFNKLQEKGIYKAMSEFDIFINYIEAYMTMKIRN
B1: the hyaloid vessel regression result in the experiment with hyaloid vessels is given as “inhibited hyaloid regression”.
